Legend:
[1] = target: T1, human α1a receptor (Homo sapiens, UniProt P35348); assay: Radioligand binding ([^3 H]prazosin) at cloned human α1a receptor; settings: LM(tk-) cell membranes, read-out: hα1a Ki
T1 construct: The entire coding region of α1a (1401 bp); expressed in transfected cells; host or cells: LM(tk-) mouse fibroblast line L-α1C (old nomenclature), ATCC CR 11140
T1 sequence (P35348 1-466): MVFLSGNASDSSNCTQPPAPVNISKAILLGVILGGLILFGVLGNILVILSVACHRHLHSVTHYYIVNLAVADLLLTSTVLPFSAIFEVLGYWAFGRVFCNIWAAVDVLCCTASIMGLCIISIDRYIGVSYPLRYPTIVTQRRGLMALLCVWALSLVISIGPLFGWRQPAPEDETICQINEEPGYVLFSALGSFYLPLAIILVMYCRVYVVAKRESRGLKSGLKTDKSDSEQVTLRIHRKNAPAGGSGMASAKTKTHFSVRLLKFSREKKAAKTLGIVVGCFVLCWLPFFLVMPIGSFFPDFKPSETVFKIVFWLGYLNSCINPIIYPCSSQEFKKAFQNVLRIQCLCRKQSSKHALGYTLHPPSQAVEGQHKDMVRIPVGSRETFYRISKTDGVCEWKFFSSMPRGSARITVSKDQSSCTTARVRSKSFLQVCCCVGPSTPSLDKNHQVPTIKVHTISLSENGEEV
Method: (§1) Binding affinities were measured for selected compounds of the invention at six cloned human α1 and α2 receptor subtypes, as well as at the L-type calcium channel. The protocols for these experiments are given below.
(§2) The activity of compounds at the different human receptors was determined in vitro using cultured cell lines that selectively express the receptor of interest. These cell lines were prepared by transfecting the cloned cDNA or cloned genomic DNA or constructs containing both genomic DNA and cDNA encoding the human α-adrenergic receptors as follows:
α1a Human Adrenergic Receptor: The entire coding region of α1a (1401 bp), including 400 base pairs of 5' untranslated sequence (5' UT) and 200 bp of 3' untranslated sequence (3' UT), was cloned into the KpnI site of the polylinker-modified pCEXV-3-derived eukaryotic expression vector, EXJ.RH. The construct involved ligating three partial overlapping fragments: a 5' 0.6 kb HincII genomic clone, a central 1.8 EcoRI hippocampal cDNA clone, and a 3' 0.6Kb PstI genomic clone. The hippocampal cDNA fragment overlaps with the 5' and 3' genomic clones so that the HincII and PstI sites at the 5' and 3' ends of the cDNA clone, respectively, were utilized for ligation. This full-length clone was cloned into the KpnI site of the expression vector, using the 5' and 3' KpnI sites of the fragment, derived from vector (i.e., pBluescript) and 3'-untranslated sequences, respectively. Stable cell lines were selected as described above. The stable cell line expressing the human α1a receptor used herein was designated L-α1C (old nomenclature) and was deposited with the American Type Culture Collection, 12301 Parklawn Drive, Rockville, Md. 20852, U.S.A. under the provisions of the Budapest Treaty for the International Recognition of the Deposit of Microorganisms for the Purposes of Patent Procedure. The cell line expressing the human α1a receptor was accorded Accession No. CR 11140, on Sep. 25, 1992.
(§3) Radioligand Binding Assays for α1 receptors:
(§4) Transfected cells from culture flasks were scraped into 5 ml of 5 mM Tris-HCl, 5 mM EDTA, pH 7.5, and lysed by sonication. The cell lysates were centrifuged at 1000 rpm for 5 min at 4° C., and the supernatant was centrifuged at 30,000× g for 20 min at 4° C. The pellet was suspended in 50 mM Tris-HCl, 1 mM MgCl2, and 0.1% ascorbic acid at pH 7.5. Binding of the α1 antagonist [^3 H]prazosin (0.5 nM, specific activity 76.2 Ci/mmol) to membrane preparations of LM(tk-) cells was done in a final volume of 0.25 ml and incubated at 37° C. for 20 min. Nonspecific binding was determined in the presence of […] phentolamine. The reaction was stopped by filtration through GF/B filters using a cell harvester. Inhibition experiments, routinely consisting of 7 concentrations of the tested compounds, were analyzed using a non-linear regression curve-fitting computer program to obtain Ki values.
(§5) The compounds described above were assayed using cloned human alpha adrenergic receptors. […] The binding affinities of several compounds are illustrated in the following table.
(§6) Binding affinities of selected compounds of the present invention at cloned human α1d, α1b and α1a receptors. (h=human)

[2] = target: T2, human α1b receptor (Homo sapiens, UniProt P35368); assay: Radioligand binding ([^3 H]prazosin) at cloned human α1b receptor; settings: LM(tk-) cell membranes, read-out: hα1b Ki
T2 construct: The entire coding region of α1b (1563 bp); expressed in transfected cells; host or cells: LM(tk-) mouse fibroblast line L-α1B, ATCC CR 11139
T2 sequence (P35368 1-520): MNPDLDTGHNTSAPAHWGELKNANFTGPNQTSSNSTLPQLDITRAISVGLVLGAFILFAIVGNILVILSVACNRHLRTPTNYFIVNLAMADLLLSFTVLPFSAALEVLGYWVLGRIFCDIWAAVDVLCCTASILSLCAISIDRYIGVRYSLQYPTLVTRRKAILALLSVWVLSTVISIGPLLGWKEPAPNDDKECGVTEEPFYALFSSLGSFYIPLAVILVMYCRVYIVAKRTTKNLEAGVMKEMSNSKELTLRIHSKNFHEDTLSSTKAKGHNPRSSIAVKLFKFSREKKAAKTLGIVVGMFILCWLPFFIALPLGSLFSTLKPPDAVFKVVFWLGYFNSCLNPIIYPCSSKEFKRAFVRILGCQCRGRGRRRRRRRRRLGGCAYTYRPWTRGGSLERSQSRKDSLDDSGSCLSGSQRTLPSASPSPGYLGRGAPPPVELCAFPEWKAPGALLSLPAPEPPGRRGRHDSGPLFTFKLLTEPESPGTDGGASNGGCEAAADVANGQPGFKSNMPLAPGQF
Method: as §1, §2
α1b Human Adrenergic Receptor: The entire coding region of α1b (1563 bp), including 200 base pairs and 5' untranslated sequence (5' UT) and 600 bp of 3' untranslated sequence (3' UT), was cloned into the EcoRI site of pCEXV-3 eukaryotic expression vector. The construct involved ligating the full-length containing EcoRI brainstem cDNA fragment from λ ZapII into the expression vector. Stable cell lines were selected as described above. The cell line used herein was designated L-α1B and was deposited with the American Type Culture Collection, 12301 Parklawn Drive, Rockville, Md. 20852, U.S.A. under the provisions of the Budapest Treaty for the International Recognition of the Deposit of Microorganisms for the Purposes of Patent Procedure. The cell line L-α1B was accorded ATCC Accession No. CR 11139, on Sep. 29, 1992.
as §3, §4, §5, §6

Work on `COC(=O)c1[nH]c(=O)n(CCCCCN2CCC(C(=O)OC)(c3ccccc3)CC2)c1-c1ccc(F)c(F)c1` [Compound 1, 1-(5-(4-Methoxycarbonyl-4-phenylpiperidin-1-yl)pent-1-yl)-4-methoxycarbonyl-5-(3,4-difluorophenyl)-2,3-dihydro-2(1H)-imidazolone] yielded a Ki [1] of 1.8 nM and a Ki [2] of 309 nM.
`COC(=O)c1[nH]c(=O)n(CCCCCN2CCC(C#N)(c3ccccc3)CC2)c1-c1ccc(F)c(F)c1` [Compound 2, 5-(3,4-Difluorophenyl)-2,3-dihydro-4-methoxycarbonyl-1-(5-(4-cyano-4-phenylpiperidin-1-yl)pent-1-yl)-2(1H)-imidazolone] gave a Ki [1] of 4.1 nM and a Ki [2] of 347 nM.
In the case of `COC(=O)c1[nH]c(=O)n(CCCCCN2CCC(O)(c3ccccc3)CC2)c1-c1ccc(F)c(F)c1` [Compound 3, 5-(3,4-Difluorophenyl)-2,3-dihydro-4-methoxycarbonyl-1-(5-(4-hydroxy-4-phenylpiperidin-1-yl)pent-1-yl)-2(1H)-imidazolone], the Ki [1] is reported as 21.1 nM and the Ki [2] is reported as 1580 nM.
In the case of `COC(=O)c1[nH]c(=O)n(CCCCCN2CCN(c3ccccc3C(N)=O)CC2)c1-c1cc(F)c(F)c(F)c1` [Compound 4, 1-(5-(4-(2-Aminocarbonylphenyl)piperazin-1-yl)pent-1-yl)-5-(3,4,5-trifluorophenyl)-2,3-dihydro-4-methoxycarbonyl-2(1H)-imidazolone], the Ki [1] is reported as 1.5 nM and the Ki [2] is reported as 159 nM.
`COC(=O)c1ccccc1N1CCN(CCCCCn2c(-c3cc(F)c(F)c(F)c3)c(C(=O)OC)[nH]c2=O)CC1` [Compound 5, 5-(3,4,5-Trifluorophenyl)-2,3-dihydro-4-methoxycarbonyl-1-(5-(4-(2-methoxycarbonylphenyl)piperazin-1-yl)pent-1-yl)-2(1H)-imidazolone] was tested, and the Ki [1] was 0.1 nM and the Ki [2] was 11.7 nM.
In the case of `CCOC(=O)c1[nH]c(=O)n(CCCCCN2CCN(c3ccccc3C(N)=O)CC2)c1-c1ccc(F)c(F)c1` [Compound 6, 1-(5-(4-(2-Aminocarbonylphenyl)piperazin-1-yl)pent-1-yl)-4-ethoxycarbonyl-5-(3,4-difluorophenyl)-2,3-dihydro-2(1H)-imidazolone], the Ki [1] is reported as 1.4 nM and the Ki [2] is reported as 110 nM.
`COC(=O)c1[nH]c(=O)n(CCCCCN2CCN(c3ccccc3C(N)=O)CC2)c1-c1cc(F)c(F)cc1F` [Compound 7, 1-(5-(4-(2-Aminocarbonylphenyl)piperazin-1-yl)pent-1-yl)-5-(2,4,5-trifluorophenyl)-2,3-dihydro-4-methoxylcarboxy-2(1H)-imidazolone] showed a Ki [1] of 1.2 nM and a Ki [2] of 111 nM.
`COC(=O)c1[nH]c(=O)n(CCCCCN2CCC(C(=O)OC)(c3ccccc3)CC2)c1Cc1ccc(F)c(F)c1` [Compound 37, 5-(3,4-Difluorobenzyl)-2,3-dihydro-4-methoxycarbonyl-1-(5-(4-methoxycarbonyl-4-phenylpiperidin-1-yl)pent-1-yl)-2(1H) -imidazolone] gave a Ki [1] of 4.5 nM and a Ki [2] of 558 nM.

Source: patent US6046331A, “Imidazolones and their use in treating benign prostatic hyperplasia and other disorders” (Synaptic Pharmaceutical Corporation, priority 1998, dated 2000)
